In publication PMC7904915, “Discovery of exolytic heparinases and their catalytic mechanism and potential application” (Nature Communications, 2021):

Experiments:
Type in all cases: biochemical
BIexoHep = target: T1, BIexoHep (Bacteroides intestinalis, UniProt B3C5J6); assay: tetrasaccharide digestion, 2-AB labelling, anion-exchange HPLC; settings: exolytic beta-elimination; 5 pmol substrate
T1 construct: gene BACINT_00178; pET-30a(+), His-purified from E. coli BL21(DE3); crystal residues 24-864, monomer, two Ca2+
T1 sequence (B3C5J6 24-868): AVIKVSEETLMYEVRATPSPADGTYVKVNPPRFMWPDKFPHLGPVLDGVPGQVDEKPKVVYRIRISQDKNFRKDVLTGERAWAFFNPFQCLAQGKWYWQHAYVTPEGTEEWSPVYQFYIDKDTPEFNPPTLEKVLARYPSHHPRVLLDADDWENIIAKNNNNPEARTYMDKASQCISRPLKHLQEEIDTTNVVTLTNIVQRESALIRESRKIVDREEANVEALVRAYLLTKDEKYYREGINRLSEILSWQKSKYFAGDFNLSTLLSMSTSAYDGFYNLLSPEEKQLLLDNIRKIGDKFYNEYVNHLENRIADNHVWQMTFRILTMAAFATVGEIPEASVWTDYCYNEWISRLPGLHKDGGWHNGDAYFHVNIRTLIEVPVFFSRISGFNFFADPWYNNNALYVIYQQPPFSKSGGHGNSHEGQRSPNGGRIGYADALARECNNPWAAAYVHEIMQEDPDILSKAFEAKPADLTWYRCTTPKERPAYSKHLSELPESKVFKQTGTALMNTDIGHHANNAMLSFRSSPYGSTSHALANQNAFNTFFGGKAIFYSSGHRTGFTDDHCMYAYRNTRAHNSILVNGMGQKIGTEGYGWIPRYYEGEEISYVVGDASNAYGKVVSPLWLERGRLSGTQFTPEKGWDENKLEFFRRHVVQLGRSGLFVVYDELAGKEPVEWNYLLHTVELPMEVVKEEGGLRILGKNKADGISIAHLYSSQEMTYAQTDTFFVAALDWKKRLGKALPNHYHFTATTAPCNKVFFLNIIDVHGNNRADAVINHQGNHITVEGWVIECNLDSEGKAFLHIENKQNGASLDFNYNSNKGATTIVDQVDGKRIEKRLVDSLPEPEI

BFexoHep = target: T2, BFexoHep (Bacteroides finegoldii, UniProt C9L025); assay: digestion, anion-exchange HPLC at […] nm; settings: […] μg fondaparinux; cleaved to ΔUA2S([…]-4)GlcNS6S(OCH3) only
T2 construct: synthetic gene, expressed in E. coli BL21(DE3) and purified as BIexoHep
T2 sequence (C9L025 24-874): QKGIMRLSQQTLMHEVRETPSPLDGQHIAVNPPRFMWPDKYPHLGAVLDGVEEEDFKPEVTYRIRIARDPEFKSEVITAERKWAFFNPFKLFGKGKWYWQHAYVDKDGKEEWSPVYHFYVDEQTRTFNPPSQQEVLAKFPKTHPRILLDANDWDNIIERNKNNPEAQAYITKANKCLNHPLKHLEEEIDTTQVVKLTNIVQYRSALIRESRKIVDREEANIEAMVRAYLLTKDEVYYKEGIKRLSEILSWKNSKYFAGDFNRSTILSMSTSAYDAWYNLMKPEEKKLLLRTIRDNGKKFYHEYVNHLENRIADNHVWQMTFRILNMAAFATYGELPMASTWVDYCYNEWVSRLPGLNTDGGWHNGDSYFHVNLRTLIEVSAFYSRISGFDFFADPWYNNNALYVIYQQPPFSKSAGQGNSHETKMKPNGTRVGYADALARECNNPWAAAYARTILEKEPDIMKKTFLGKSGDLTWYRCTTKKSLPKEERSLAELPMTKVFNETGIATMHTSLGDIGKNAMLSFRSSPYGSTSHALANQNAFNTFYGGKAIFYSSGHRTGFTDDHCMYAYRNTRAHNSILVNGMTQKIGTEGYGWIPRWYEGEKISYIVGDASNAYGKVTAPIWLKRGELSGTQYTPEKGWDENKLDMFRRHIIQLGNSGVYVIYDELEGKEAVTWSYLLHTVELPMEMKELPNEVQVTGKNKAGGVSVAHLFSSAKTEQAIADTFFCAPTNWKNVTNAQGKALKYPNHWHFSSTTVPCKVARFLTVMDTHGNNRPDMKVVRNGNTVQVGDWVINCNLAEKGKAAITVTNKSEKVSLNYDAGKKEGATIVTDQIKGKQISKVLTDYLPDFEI

BTexoHep = target: T3, BTexoHep (Bacteroides thetaiotaomicron, UniProt Q89YS9); assay: digestion, anion-exchange HPLC at […] nm; settings: 5 μg fondaparinux; cleaved to ΔUA2S(1-4)GlcNS6S(OCH3) only
T3 construct: gene BT_4652; synthetic gene, expressed in E. coli BL21(DE3) and purified as BIexoHep
T3 sequence (Q89YS9 22-872): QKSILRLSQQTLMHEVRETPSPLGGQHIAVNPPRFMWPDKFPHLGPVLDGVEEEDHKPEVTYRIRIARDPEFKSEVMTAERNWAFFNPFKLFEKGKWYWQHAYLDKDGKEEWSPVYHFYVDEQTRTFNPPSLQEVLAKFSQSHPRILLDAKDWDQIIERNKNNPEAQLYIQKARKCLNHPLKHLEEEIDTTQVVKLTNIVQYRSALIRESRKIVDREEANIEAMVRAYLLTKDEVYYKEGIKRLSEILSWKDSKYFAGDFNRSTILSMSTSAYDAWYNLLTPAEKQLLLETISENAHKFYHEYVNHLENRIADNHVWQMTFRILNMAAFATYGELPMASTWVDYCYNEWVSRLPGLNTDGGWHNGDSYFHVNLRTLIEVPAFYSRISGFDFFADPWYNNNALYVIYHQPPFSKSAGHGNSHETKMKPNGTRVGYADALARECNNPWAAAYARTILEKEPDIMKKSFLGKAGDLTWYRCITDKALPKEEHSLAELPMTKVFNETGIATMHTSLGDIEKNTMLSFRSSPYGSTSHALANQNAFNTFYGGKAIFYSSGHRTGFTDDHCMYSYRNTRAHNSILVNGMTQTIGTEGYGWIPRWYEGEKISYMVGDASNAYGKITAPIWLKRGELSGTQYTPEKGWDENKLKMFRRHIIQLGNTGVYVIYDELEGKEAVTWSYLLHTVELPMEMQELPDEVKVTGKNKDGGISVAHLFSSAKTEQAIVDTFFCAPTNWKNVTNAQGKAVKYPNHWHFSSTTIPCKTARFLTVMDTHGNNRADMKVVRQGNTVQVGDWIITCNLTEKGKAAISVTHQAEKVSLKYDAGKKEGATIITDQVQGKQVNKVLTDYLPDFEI

BCexoHep = target: T4, BCexoHep (Bacteroides cellulosilyticus, UniProt A0A0P0GDH6); assay: digestion, anion-exchange HPLC at […] nm; settings: 5 μg fondaparinux; cleaved to ΔUA2S(1-4)GlcNS6S(OCH3) only
T4 construct: gene hepB; synthetic gene, expressed in E. coli BL21(DE3) and purified as BIexoHep
T4 sequence (A0A0P0GDH6 18-868): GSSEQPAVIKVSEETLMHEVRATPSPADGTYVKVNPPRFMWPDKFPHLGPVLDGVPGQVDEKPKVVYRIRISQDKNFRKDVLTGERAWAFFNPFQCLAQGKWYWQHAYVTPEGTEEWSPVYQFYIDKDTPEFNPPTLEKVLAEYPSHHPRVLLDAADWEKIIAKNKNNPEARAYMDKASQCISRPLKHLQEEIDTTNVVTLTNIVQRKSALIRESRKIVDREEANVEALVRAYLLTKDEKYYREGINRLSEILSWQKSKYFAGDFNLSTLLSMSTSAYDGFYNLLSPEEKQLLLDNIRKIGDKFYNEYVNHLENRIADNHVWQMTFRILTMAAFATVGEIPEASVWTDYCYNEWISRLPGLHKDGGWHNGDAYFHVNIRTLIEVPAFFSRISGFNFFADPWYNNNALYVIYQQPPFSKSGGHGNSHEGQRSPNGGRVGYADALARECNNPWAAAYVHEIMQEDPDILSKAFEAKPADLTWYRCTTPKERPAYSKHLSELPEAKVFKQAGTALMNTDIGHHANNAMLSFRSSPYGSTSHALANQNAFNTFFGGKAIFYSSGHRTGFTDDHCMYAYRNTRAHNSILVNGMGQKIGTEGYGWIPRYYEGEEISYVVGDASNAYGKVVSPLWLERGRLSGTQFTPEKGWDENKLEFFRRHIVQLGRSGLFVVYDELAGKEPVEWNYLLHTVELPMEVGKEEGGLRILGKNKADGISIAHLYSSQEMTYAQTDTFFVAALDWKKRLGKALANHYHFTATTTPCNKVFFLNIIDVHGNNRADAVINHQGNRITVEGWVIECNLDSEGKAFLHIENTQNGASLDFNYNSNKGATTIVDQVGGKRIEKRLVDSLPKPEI

SMILES	tetrasaccharide digestion, 2-AB labelling, anion-exchange HPLC (BIexoHep)	digestion, anion-exchange HPLC at 232 nm (BFexoHep)	digestion, anion-exchange HPLC at 232 nm (BTexoHep)	digestion, anion-exchange HPLC at 232 nm (BCexoHep)
O=C(O)C1=C[C@H](O)[C@@H](OS(=O)(=O)O)[C@H](O[C@H]2[C@H](O)[C@@H](NS(=O)(=O)O)[C@@H](O[C@H]3[C@H](O)[C@@H](O)[C@H](O[C@H]4[C@H](O)[C@@H](NS(=O)(=O)O)C(O)O[C@@H]4COS(=O)(=O)O)O[C@@H]3C(=O)O)O[C@@H]2COS(=O)(=O)O)O1 (some centres unmarked) [P4-7, ΔUA2S1-4GlcNS6S1-4GlcA1-4GlcNS6S]	all could be almost completely degraded			
O=C(O)C1=C[C@H](O)[C@@H](OS(=O)(=O)O)[C@H](O[C@H]2[C@H](O)[C@@H](NS(=O)(=O)O)[C@@H](O[C@H]3[C@H](O)[C@@H](OS(=O)(=O)O)[C@H](O[C@H]4[C@H](O)[C@@H](NS(=O)(=O)O)C(O)O[C@@H]4COS(=O)(=O)O)O[C@H]3C(=O)O)O[C@@H]2COS(=O)(=O)O)O1 (some centres unmarked) [P4-8, ΔUA2S1-4GlcNS6S1-4IdoA2S1-4GlcNS6S]	this enzyme prefers to digest highly sulfated substrates			
CO[C@H]1O[C@H](COS(=O)(=O)O)[C@@H](O[C@@H]2O[C@@H](C(=O)O)[C@@H](O[C@H]3O[C@H](COS(=O)(=O)O)[C@@H](O[C@@H]4O[C@H](C(=O)O)[C@@H](O[C@H]5O[C@H](COS(=O)(=O)O)[C@@H](O)[C@H](O)[C@H]5NS(=O)(=O)O)[C@H](O)[C@H]4O)[C@H](OS(=O)(=O)O)[C@H]3NS(=O)(=O)O)[C@H](O)[C@H]2OS(=O)(=O)O)[C@H](O)[C@H]1NS(=O)(=O)O [fondaparinux]		all these exoHepases can degrade the fondaparinux	all these exoHepases can degrade the fondaparinux	all these exoHepases can degrade the fondaparinux
